Assay: xn = mol fraction of the nth substance listed

CC(=O)[O-].CCCCCC[n+]1ccccc1 + O
electrical conductivity [S/m], 101 kPa
Conditions | x1 = 0.8711 | x1 = 0.8907 | x1 = 0.9081 | x1 = 0.9293 | x1 = 0.9699 | x2 = 0.007385
293.15 K | 0.00457 | 0.00421 | 0.00389 | 0.00337 | 0.00259 | 0.00201
298.15 K | 0.0076 | 0.00693 | 0.00609 | 0.00551 | 0.00409 | 0.00282
303.15 K | 0.0127 | 0.0115 | 0.0102 | 0.009 | 0.00656 | 0.005
308.15 K | 0.0171 | 0.0156 | 0.0139 | 0.0122 | 0.00887 | 0.00746
313.15 K | 0.0256 | 0.0229 | 0.0209 | 0.0181 | 0.014 | 0.0112
318.15 K | 0.0371 | 0.0331 | 0.03 | 0.0264 | 0.019 | 0.0155
323.15 K | 0.0501 | 0.0451 | 0.041 | 0.0365 | 0.0271 | 0.0224
328.15 K | 0.067 | 0.0608 | 0.0551 | 0.0496 | 0.0372 | 0.0318
333.15 K | 0.091 | 0.081 | 0.0727 | 0.0639 | 0.0487 | 0.0414
338.15 K | 0.124 | 0.111 | 0.101 | 0.0894 | 0.0694 | 0.0592
343.15 K | 0.163 | 0.148 | 0.135 | 0.119 | 0.0952 | 0.0819

CC(=O)[O-].CCCCC[n+]1ccccc1 + O
101 kPa
Conditions | electrical conductivity [S/m]
293.15 K, x1 = 0.9144 | 0.00606
293.15 K, x1 = 0.9163 | 0.006
293.15 K, x1 = 0.9314 | 0.00537
293.15 K, x1 = 0.948 | 0.00491
293.15 K, x1 = 0.9673 | 0.00428
293.15 K, x2 = 0.002318 | 0.00338
298.15 K, x1 = 0.9163 | 0.0103
298.15 K, x1 = 0.9314 | 0.00935
298.15 K, x1 = 0.948 | 0.00808
298.15 K, x1 = 0.9673 | 0.00703
298.15 K, x2 = 0.002318 | 0.00533
303.15 K, x1 = 0.9314 | 0.0157
303.15 K, x2 = 0.002318 | 0.00815
308.15 K, x1 = 0.9163 | 0.025
308.15 K, x1 = 0.9314 | 0.0221
313.15 K, x1 = 0.9163 | 0.0356
318.15 K, x1 = 0.9163 | 0.0509
318.15 K, x1 = 0.948 | 0.0396
318.15 K, x1 = 0.9673 | 0.0345
318.15 K, x2 = 0.002318 | 0.0267
323.15 K, x1 = 0.9163 | 0.0695
323.15 K, x2 = 0.002318 | 0.0339
328.15 K, x1 = 0.9314 | 0.081
333.15 K, x1 = 0.9144 | 0.13
338.15 K, x1 = 0.9144 | 0.175
338.15 K, x1 = 0.948 | 0.13
343.15 K, x1 = 0.9314 | 0.193

CCCCCCCCn1cc[n+](CCCCCCCC)c1.O=S(=O)([N-]S(=O)(=O)C(F)(F)F)C(F)(F)F + O
100 kPa, x2 = 0.1246
Conditions | viscosity [mPa·s]
303.15 K | 92.9
308.15 K | 73.29
358.15 K | 13.27

CCCC[n+]1ccccc1.O=S(=O)([O-])C(F)(F)F + O
298.15 K, 101 kPa
Conditions | electrical conductivity [S/m]
x1 = 0.000164 | 0.071
x1 = 0.0004107 | 0.156
x1 = 0.0005313 | 0.208
x1 = 0.0007077 | 0.277
x1 = 0.0008912 | 0.323
x1 = 0.001062 | 0.395
x1 = 0.001253 | 0.46
x1 = 0.001353 | 0.501
x1 = 0.001468 | 0.53
x1 = 0.001598 | 0.586
x1 = 0.001845 | 0.651
x1 = 0.001955 | 0.674
x1 = 0.002188 | 0.732
x1 = 0.002246 | 0.746
x1 = 0.002362 | 0.777
x1 = 0.002429 | 0.785
x1 = 0.002452 | 0.795
x1 = 0.002604 | 0.836
x1 = 0.002771 | 0.869
x1 = 0.00288 | 0.909
x1 = 0.003079 | 0.96

CCCC[n+]1ccccc1C.F[B-](F)(F)F + O
298.15 K, 101 kPa
Conditions | electrical conductivity [S/m]
x1 = 0.0002702 | 0.13
x1 = 0.0004161 | 0.188
x1 = 0.0005097 | 0.233
x1 = 0.0007329 | 0.319
x1 = 0.0008948 | 0.368
x1 = 0.001084 | 0.463
x1 = 0.001244 | 0.516
x1 = 0.001427 | 0.588
x1 = 0.001581 | 0.634
x1 = 0.001768 | 0.707
x1 = 0.001923 | 0.76
x1 = 0.002048 | 0.787
x1 = 0.00219 | 0.841
x1 = 0.002294 | 0.878
x1 = 0.002423 | 0.917
x1 = 0.002448 | 0.92
x1 = 0.002543 | 0.96
x1 = 0.002708 | 1
x1 = 0.002791 | 1.03

CCC[n+]1ccccc1.N#C[N-]C#N + O
100 kPa
Conditions | electrical conductivity [S/m] | viscosity [mPa·s]
298.15 K, x1 = 0.9303 | 1.49 | –
298.15 K, x1 = 0.9562 | – | 22.43
298.15 K, x1 = 0.9708 | – | 23.39
303.15 K, x1 = 0.9303 | 1.68 | –
303.15 K, x1 = 0.9442 | 1.64 | –
303.15 K, x1 = 0.9731 | 1.57 | –
313.15 K, x1 = 0.9277 | – | 13.05
313.15 K, x1 = 0.9562 | – | 13.71
313.15 K, x2 = 0.01178 | 2.12 | –
318.15 K, x1 = 0.9442 | 2.6 | –
318.15 K, x1 = 0.9708 | – | 12.47
323.15 K, x1 = 0.9277 | – | 9.72
323.15 K, x1 = 0.9442 | 2.95 | –
323.15 K, x1 = 0.9731 | 2.87 | –
328.15 K, x1 = 0.9417 | – | 8.63
328.15 K, x1 = 0.9562 | – | 8.88
333.15 K, x1 = 0.9442 | 3.81 | –
333.15 K, x1 = 0.9731 | 3.72 | –
338.15 K, x1 = 0.9562 | – | 7.17
338.15 K, x1 = 0.9584 | 4.22 | –

CCCn1cc[n+](C)c1.N[C@@H](CO)C(=O)[O-] + O
100 kPa
Conditions | electrical conductivity [S/m] | viscosity [mPa·s]
298.15 K, x1 = 0.8782 | – | 2215
298.15 K, x1 = 0.9094 | – | 2314
298.15 K, x1 = 0.9257 | – | 2391
303.15 K, x1 = 0.9426 | – | 1547
308.15 K, x1 = 0.8782 | – | 912
313.15 K, x1 = 0.8656 | 0.0804 | –
313.15 K, x1 = 0.8956 | 0.0751 | –
313.15 K, x1 = 0.9115 | 0.0721 | –
318.15 K, x1 = 0.8936 | – | 432
318.15 K, x1 = 0.9094 | – | 438
318.15 K, x1 = 0.9115 | 0.102 | –
318.15 K, x1 = 0.928 | 0.0979 | –
323.15 K, x1 = 0.8809 | 0.15 | –
323.15 K, x1 = 0.8956 | 0.145 | –
323.15 K, x1 = 0.9426 | – | 337
328.15 K, x1 = 0.8809 | 0.199 | –
328.15 K, x1 = 0.9257 | – | 238
333.15 K, x1 = 0.8782 | – | 171
333.15 K, x1 = 0.9115 | 0.248 | –
338.15 K, x1 = 0.9115 | 0.319 | –
338.15 K, x1 = 0.9257 | – | 134.8
338.15 K, x1 = 0.928 | 0.312 | –

C[N+](C)(C)CCO.NCC(=O)[O-] + O
100 kPa
Conditions | viscosity [mPa·s]
298.15 K, x1 = 1 | 501
303.15 K, x1 = 0.6966 | 202
308.15 K, x1 = 0.1 | 4.34
308.15 K, x1 = 0.3996 | 60.2
313.15 K, x1 = 0.3996 | 49
313.15 K, x1 = 0.5004 | 71.1
318.15 K, x1 = 0.1 | 3.35
318.15 K, x1 = 0.3 | 25.63
318.15 K, x1 = 0.3996 | 40.89
318.15 K, x1 = 0.5004 | 56
318.15 K, x1 = 1 | 154.5

C[N+](C)(CCCS(=O)(=O)O)C1CCCCC1.Cc1ccc(S(=O)(=O)[O-])cc1 + O
101 kPa
Conditions | viscosity [mPa·s]
303.15 K, x1 = 1 | 113700
308.15 K, x1 = 0.06028 | 6.925
308.15 K, x1 = 1 | 56930
313.15 K, x1 = 0.01059 | 1.118
313.15 K, x1 = 0.06028 | 6
318.15 K, x1 = 0.01059 | 1.007
318.15 K, x1 = 0.1459 | 38.93
328.15 K, x1 = 0.01059 | 0.8334
328.15 K, x1 = 0.02771 | 1.636
328.15 K, x1 = 0.06028 | 3.944

CCCn1cc[n+](C)c1C.O=S(=O)([N-]S(=O)(=O)C(F)(F)F)C(F)(F)F + O=C1CCCO1
100 kPa, frequency 0.005 MHz
Conditions | electrical conductivity [S/m]
293.15 K, x2 = 0.2006 | 0.28
293.15 K, x2 = 0.6992 | 0.992
293.15 K, x2 = 0.8002 | 1.19
293.15 K, x2 = 0.8999 | 1.2
298.15 K, x2 = 0 | 0.265
303.15 K, x2 = 0.1289 | 0.395
303.15 K, x2 = 0.8508 | 1.5
308.15 K, x2 = 0.2006 | 0.537
308.15 K, x2 = 0.6992 | 1.41
308.15 K, x2 = 0.9495 | 1.11
313.15 K, x2 = 0.6992 | 1.57
313.15 K, x2 = 0.8508 | 1.77
313.15 K, x2 = 0.8999 | 1.68
318.15 K, x2 = 0.4952 | 1.32
323.15 K, x2 = 0.2006 | 0.864
